For 23 compounds, T/C results are on record in PubChem BioAssay AID330 (DTP/NCI, 2004).

The subject of the test is P388 leukemia ip, CD2F1 mice, survival T/C. The test can be described thus: NCI In Vivo Anticancer Drug Screen. Data for tumor model P388 Leukemia (intraperitoneal) in CD2F1 (CDF1) mice. The settings on record: endpoint: median survival time, higher = longer survival. Put shortly: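 Mice carrying the transplanted tumor received test compound or vehicle. Survival was recorded in each group, and the value is the treated-group measurement divided by that of the vehicle-treated control group.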

The mark [1] stands for this setting: dose: 50.0 mg/kg/injection, schedule: Q01DX009 (ip), vehicle: saline with Tween-80.
The mark [2] stands for this setting: dose: 100.0 mg/kg/injection, schedule: Q01DX009 (ip), vehicle: saline with Tween-80.
The mark [3] stands for this setting: dose: 50.0 mg/kg/injection, schedule: Q01DX009 (ip), vehicle: saline.
Where [4] appears, read: dose: 100.0 mg/kg/injection, schedule: Q01DX009 (ip), vehicle: saline.
Setting [5] is: dose: 60.0 mg/kg/injection, schedule: Q01DX005 (ip), vehicle: saline with Tween-80.
Setting [6] is: dose: 120.0 mg/kg/injection, schedule: Q01DX005 (ip), vehicle: saline with Tween-80.
Where [7] appears, read: dose: 240.0 mg/kg/injection, schedule: Q01DX005 (ip), vehicle: saline with Tween-80.
Where [8] appears, read: dose: 100.0 mg/kg/injection, schedule: Q01DX001 (ip), vehicle: saline with Tween-80.
Where [9] appears, read: dose: 200.0 mg/kg/injection, schedule: Q01DX001 (ip), vehicle: saline with Tween-80.

Where “and” joins values, the source holds several entries; their conditions need not be identical. Identical values can stand only once. Toxic doses and inconclusive results are not listed.

With `C=C1C(=O)OC2CC(C)/C=C\C(=O)C(C)(O)C(O)C(O)C12` (configuration not stated) (tested in a mixture with another compound), the T/C is 113 % of control (dose: 12.5 mg/kg/injection, schedule: Q01DX001 (ip), vehicle: Klucel (hydroxypropylcellulose) (HPC)) and 105 % of control (dose: 25.0 mg/kg/injection, schedule: Q01DX001 (ip), vehicle: Klucel (hydroxypropylcellulose) (HPC)).
With `CC(C)Cc1ncc(CC(C)C)n(O)c1=O`, the T/C is 95 % of control (dose: 12.5 mg/kg/injection, schedule: Q01DX005 (ip), vehicle: distilled water + Tween-80); 103 % of control (dose: 25.0 mg/kg/injection, schedule: Q01DX005 (ip), vehicle: distilled water + Tween-80); 101 % of control (dose: 50.0 mg/kg/injection, schedule: Q01DX005 (ip), vehicle: distilled water + Tween-80); 100 % of control (dose: 100.0 mg/kg/injection, schedule: Q01DX005 (ip), vehicle: distilled water + Tween-80).
On to `COC1OCN(Cc2ccccc2)CC1(C)C` (configuration not stated), for which the T/C was 108 % of control under setting [1] and 120 % of control under setting [2].
Consider `CCn1c2ccccc2c2cc(N=Nc3cc4ccccc4[nH]3)ccc21`, for which the T/C was 115 % of control under setting [1]; 113 % of control under setting [2]; 113 % of control (dose: 200.0 mg/kg/injection, schedule: Q01DX009 (ip), vehicle: saline with Tween-80).
`O=C(O)C1CSC(c2cccnc2)N1` (configuration not stated): the T/C reads like this: under setting [3], 89 % of control; under setting [4], 90 % of control.
Turning to `CCCC[CH2][Pb]([CH2]CCCC)([CH2]CCCC)[O]C(C)=O`, the T/C runs as follows: (dose: 0.25 mg/kg/injection, schedule: Q01DX009 (ip), vehicle: saline sonified) 104 % of control; (dose: 0.5 mg/kg/injection, schedule: Q01DX009 (ip), vehicle: saline sonified) 109 % of control; (dose: 1.0 mg/kg/injection, schedule: Q01DX009 (ip), vehicle: saline sonified) 104 % of control.
Regarding `CCCCc1c(C#N)c(=O)n2c(N)c(C#N)cnc2c1SC`, the T/C under setting [5] was 93 % of control, the T/C under setting [6] was 93 % of control and the T/C under setting [7] was 87 % of control.
Take `CNC(=O)Nc1cc2ccccc2o1`: the T/C (dose: 100.0 mg/kg/injection, schedule: Q04DX003 (ip), vehicle: saline with Tween-80) is 110 % of control; the T/C (dose: 200.0 mg/kg/injection, schedule: Q04DX003 (ip), vehicle: saline with Tween-80) was 100 % of control; the T/C (dose: 400.0 mg/kg/injection, schedule: Q04DX003 (ip), vehicle: saline with Tween-80) is 105 % of control.
As to `CC(C)C1OC2(CCCC2)OCC1(C)C` (configuration not stated), the T/C (dose: 100.0 mg/kg/injection, schedule: Q04DX003 (ip), vehicle: Klucel (hydroxypropylcellulose) (HPC)) was 103 % of control; the T/C (dose: 200.0 mg/kg/injection, schedule: Q04DX003 (ip), vehicle: Klucel (hydroxypropylcellulose) (HPC)) was 103 % of control; the T/C (dose: 400.0 mg/kg/injection, schedule: Q04DX003 (ip), vehicle: Klucel (hydroxypropylcellulose) (HPC)) was 100 % of control.
In the case of `CCN(CC)C1CC(O[C@H]2C[C@](O)(C(=O)CO)Cc3c(O)c4c(c(O)c32)C(=O)c2c(OC)cccc2C4=O)OC(C)C1O` (some centres not stated), the T/C is, setting by setting: (dose: 1.56 mg/kg/injection, schedule: Q01DX009 (ip), vehicle: water) 153 % of control; (dose: 3.13 mg/kg/injection, schedule: Q01DX009 (ip), vehicle: water) 165 % of control and 178 % of control.
Regarding `O=C(O)CCC(=O)NCC1CCCC(CNC(=O)CCC(=O)O)C1` (configuration not stated), the T/C (dose: 50.0 mg/kg/injection, schedule: Q01DX009 (ip), vehicle: Klucel (hydroxypropylcellulose) (HPC)) was 96 % of control; the T/C (dose: 100.0 mg/kg/injection, schedule: Q01DX009 (ip), vehicle: Klucel (hydroxypropylcellulose) (HPC)) is 110 % of control; the T/C (dose: 200.0 mg/kg/injection, schedule: Q01DX009 (ip), vehicle: Klucel (hydroxypropylcellulose) (HPC)) was 101 % of control.
`CCCCCCCCCCNCCSSCc1ccc(OC)cc1`: the T/C reads like this: (dose: 6.25 mg/kg/injection, schedule: Q01DX005 (ip), vehicle: Klucel (hydroxypropylcellulose) (HPC)) 103 % of control; (dose: 12.5 mg/kg/injection, schedule: Q01DX005 (ip), vehicle: Klucel (hydroxypropylcellulose) (HPC)) 103 % of control; (dose: 25.0 mg/kg/injection, schedule: Q01DX005 (ip), vehicle: Klucel (hydroxypropylcellulose) (HPC)) 100 % of control.
Turning to `COC(=O)NC1C(=O)OC2C1CC1OC12` (configuration not stated), the T/C was 101 % of control under setting [5], 100 % of control under setting [6] and 101 % of control under setting [7].
For the compound `c1ccc(Cc2cc(-c3ccccc3)[nH]c2-c2ccccc2)cc1`, the T/C was 100 % of control under setting [3]; 104 % of control under setting [4]; 90 % of control (dose: 200.0 mg/kg/injection, schedule: Q01DX009 (ip), vehicle: saline).
Take `O=C(O)c1c(O)ccc(O)c1C(=O)O`: the T/C runs as follows: under setting [5], 101 % of control; under setting [6], 92 % of control; under setting [7], 97 % of control.
For the compound `O=C(O)c1ccnc(C(=O)O)c1`, the T/C runs as follows: under setting [8], 100 % of control; under setting [9], 90 % of control.
As for `CCOc1ccc(-c2nc3ccc(-c4nc5ccc(N6CCN(C)CC6)cc5[nH]4)cc3[nH]2)cc1`, the T/C (dose: 3.12 mg/kg/injection, schedule: Q01DX005 (ip), vehicle: water) was 159 % of control.
In the case of `CCOC(=O)N1CCN(C(=S)N/N=C(\C)c2ncccn2)CC1`, the T/C was 123 % of control (dose: 6.25 mg/kg/injection, schedule: Q01DX005 (ip), vehicle: saline with Tween-80) and 97 % of control (dose: 12.5 mg/kg/injection, schedule: Q01DX005 (ip), vehicle: saline with Tween-80).
With `C/C=C/c1cc(OC)c2c(c1)[C@H](C)C(c1ccc3c(c1)OCO3)O2` (some centres not stated), the T/C reads like this: (dose: 37.5 mg/kg/injection, schedule: Q01DX005 (ip), vehicle: Klucel (hydroxypropylcellulose) (HPC)) 97 % of control; (dose: 75.0 mg/kg/injection, schedule: Q01DX005 (ip), vehicle: Klucel (hydroxypropylcellulose) (HPC)) 86 % of control; (dose: 150.0 mg/kg/injection, schedule: Q01DX005 (ip), vehicle: Klucel (hydroxypropylcellulose) (HPC)) 88 % of control; (dose: 300.0 mg/kg/injection, schedule: Q01DX005 (ip), vehicle: Klucel (hydroxypropylcellulose) (HPC)) 91 % of control.
As to `COc1cc2c(c(OC)c1OC)-c1ccc(=O)c(OC)cc1C(N(C)C(C)=O)CC2` (configuration not stated), the T/C was 100 % of control (dose: 1.25 mg/kg/injection, schedule: Q01DX009 (ip), vehicle: Klucel (hydroxypropylcellulose) (HPC)); 100 % of control (dose: 2.5 mg/kg/injection, schedule: Q01DX009 (ip), vehicle: Klucel (hydroxypropylcellulose) (HPC)); 113 % of control (dose: 5.0 mg/kg/injection, schedule: Q01DX009 (ip), vehicle: Klucel (hydroxypropylcellulose) (HPC)); 103 % of control (dose: 10.0 mg/kg/injection, schedule: Q01DX009 (ip), vehicle: Klucel (hydroxypropylcellulose) (HPC)); 106 % of control (dose: 20.0 mg/kg/injection, schedule: Q01DX009 (ip), vehicle: Klucel (hydroxypropylcellulose) (HPC)).
In the case of `CC(=O)OCCN1CCN(CC/C=C2\c3ccccc3Sc3ccc(Cl)cc32)CC1`, the T/C is, setting by setting: (dose: 6.25 mg/kg/injection, schedule: Q01DX009 (ip), vehicle: saline with Tween-80) 109 % of control; (dose: 12.5 mg/kg/injection, schedule: Q01DX009 (ip), vehicle: saline with Tween-80) 113 % of control; (dose: 25.0 mg/kg/injection, schedule: Q01DX009 (ip), vehicle: saline with Tween-80) 113 % of control.
As for `COc1ccc(/C=N/Nc2nnc3c4ccccc4c4ncccc4c3n2)cc1`, the T/C under setting [8] is 88 % of control; the T/C under setting [9] was 95 % of control; the T/C (dose: 400.0 mg/kg/injection, schedule: Q01DX001 (ip), vehicle: saline with Tween-80) was 106 % of control.
For the compound `[N-]=[N+]=CC(=O)Oc1ccc([N+](=O)[O-])cc1`, the T/C (dose: 3.13 mg/kg/injection, schedule: Q01DX009 (ip), vehicle: other) was 100 % of control; the T/C (dose: 6.25 mg/kg/injection, schedule: Q01DX009 (ip), vehicle: other) is 98 % of control; the T/C (dose: 12.5 mg/kg/injection, schedule: Q01DX009 (ip), vehicle: other) was 104 % of control; the T/C (dose: 25.0 mg/kg/injection, schedule: Q01DX009 (ip), vehicle: other) is 98 % of control and 97 % of control; the T/C (dose: 50.0 mg/kg/injection, schedule: Q01DX009 (ip), vehicle: other) is 89 % of control.
